According to US4762850A, “Dopamine-beta-hydroxylase inhibitors” (SmithKline Beckman Corporation, priority 1987, dated 1988):
pIC50: −log10 of the molar value. Structures can show the parent of a compound that is named as a salt.

Columns and labels:
[1] = biological target: T1, dopamine-β-hydroxylase (DBH) (Bos taurus, UniProt P15101); conditions: cited from earlier work; for DBH inhibition (in words): literature reports
T1 sequence (P15101 1-610): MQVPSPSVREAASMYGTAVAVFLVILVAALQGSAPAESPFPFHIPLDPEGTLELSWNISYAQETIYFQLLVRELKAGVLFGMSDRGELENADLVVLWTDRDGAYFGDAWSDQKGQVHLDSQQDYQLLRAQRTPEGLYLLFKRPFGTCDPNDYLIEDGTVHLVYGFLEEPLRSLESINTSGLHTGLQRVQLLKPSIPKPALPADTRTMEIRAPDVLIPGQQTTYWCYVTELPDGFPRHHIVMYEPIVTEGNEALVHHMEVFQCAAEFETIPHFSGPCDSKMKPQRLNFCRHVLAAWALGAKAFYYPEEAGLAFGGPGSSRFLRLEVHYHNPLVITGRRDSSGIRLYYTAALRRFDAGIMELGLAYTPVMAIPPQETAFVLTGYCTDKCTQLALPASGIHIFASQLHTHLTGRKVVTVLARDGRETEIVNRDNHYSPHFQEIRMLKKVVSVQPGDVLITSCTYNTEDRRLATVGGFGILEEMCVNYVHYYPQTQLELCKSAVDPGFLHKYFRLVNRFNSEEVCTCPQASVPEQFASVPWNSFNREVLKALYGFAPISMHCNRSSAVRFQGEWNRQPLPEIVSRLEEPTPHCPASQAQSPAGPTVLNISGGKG

[2] = biological target: T1, dopamine-β-hydroxylase (DBH); test: in vitro DBH inhibition: conversion of tyramine to octopamine (standard procedure of Pisano et al.); type: biochemical; conditions: absorbance at 330 nm, read-out: DBH IC50 (molar concentration of compound at which DBH activity was halved)
Protocol: Listed in Table I are the compounds of the invention that were tested for in vitro DBH inhibition by a standard procedure for assaying conversion of tyramine to octopamine in the presence of DBH. J. J. Pisano, et al., Biochim. Biophys. Acta, 43, 566-568 (1960). Octopamine was assayed following sodium periodate oxidation to p-hydroxybenzaldehyde by measuring spectrophotometric absorbance at 330 nm. In Table I, inhibition is given in molar concentration of compound at which DBH activity was halved (IC50).

[3] = Teresawa et al. and references cited therein; cited from earlier work
[4] = mean arterial blood pressure in spontaneously hypertensive rats; type: in vivo; conditions: 50 mg/kg intraperitoneally
Protocol: Further, spontaneously hypertensive rats were treated with a suspension or solution of N-(2-aminoethyl)-1-(3,5-difluorobenzyl)-2-mercaptoimidazole-5-carboxamide,formate at a dose of 50 mg/kg intraperitoneally, and mean arterial blood pressure was monitored for 260 minutes using indwelling cannulae in the tail arteries.

[5] = Ehrreich et al.; cited from earlier work

NOCc1ccccc1 [Benzyloxyamine, benzyloxyamine]
mode of DBH inhibition [1]: competitive inhibitors

O=C(O)c1cnc(S)n1Cc1cc(F)cc(F)c1 [1-(3,5-Difluorobenzyl)-2-mercaptoimidazole-5-carboxylic acid]
pIC50 [2]: 4.00

O=C(O)c1ccc(CCC(Br)CBr)cn1 (stereo not drawn) [5-(3,4-dibromobutyl)picolinic acid]
DBH inhibition (in words) [1]: DBH inhibitors

CCCCc1ccc(C(=O)O)nc1 [Fusaric acid]
toxicity [3]: hepatotoxic

O=C(O)c1ccc(CCCCCl)cn1 [5-(4-chlorobutyl) picolinic acid]
DBH inhibition (in words) [1]: inhibit DBH

CN(C)C(=S)SCc1ccc(C(=O)O)nc1 [5-(dimethyldithiocarbamoylmethyl)picolinic acid]
DBH inhibition (in words) [1]: DBH inhibitors

NCCNC(=O)c1cnc(S)n1Cc1cc(F)cc(F)c1 [N-(2-Aminoethyl)-1-(3,5-difluorobenzyl)-2-mercaptoimidazole-5-carboxamide,formate]
pIC50 [2]: 6.47 | mean arterial blood pressure reduction compared to vehicle-treated controls ([4]; spontaneously hypertensive rats): significant blood pressure reductions | blood pressure when monitoring was terminated ([4]; monitored for 260 minutes): blood pressure remained decreased

NNCc1ccccc1 [benzylhydrazine]
mode of DBH inhibition [1]: competitive inhibitors

CCCCc1ccc(C(N)=O)nc1 [Bupicomide, 5-(n-butyl)picolinamine]
DBH inhibition (in words) [1]: DBH inhibitor | antihypertensive activity [5]: has antihypertensive activity
